# Data reported in US11078168B2, “Substituted N-hydroxyamidinoheterocycles as modulators of indoleamine 2,3-dioxygenase” (PHENEX DISCOVERY VERWALTUNGS-GMBH, priority 2016, dated 2021).
# Biological target: T1, Indoleamine 2,3-dioxygenase (Homo sapiens, UniProt P14902)
# T1 construct: endogenous in cells; host or cells: SKOV-3 (ATCC HTB-77), stimulated with interferon gamma
# Test: SKOV-3 cellular Indoleamine 2,3-dioxygenase assay
# Conditions: SKOV-3 cells, 50 ng/ml Interferon gamma, 100 μM L-Tryptophan, 24 hours, N-Formylkynurenin fluorescence detection; read-out: cell based activity
# Procedure: SKOV-3 cellular Indoleamine 2,3-dioxygenase assay
# SKOV-3 cells were obtained from the American Type Culture Collection (ATCC® HTB-77™) and maintained in McCoy's medium (Pan Biotech) supplemented with 10% fetal bovine serum and 1% Penicilin/Streptomycin. Cells were kept at 37° C. in a humidified incubator with 5% CO2. For assay preparation, cells were seeded at a density of 2*10^5/ml into black clear bottom 96 well plates in 100 μl medium/well supplemented with 50 ng/ml Interferon gamma (eBioscience, Thermo Fisher Scientific). After cells fully adhered to the plate, dilution series of compounds were added in medium containing additional L-Tryptophan to a final L-Tryptophan concentration of 100 μM. The cells were incubated for 24 hours. Detection of produced N-Formylkynurenin was performed by addition of 3-Methylpiperidine to a final concentration of 200 mM. The plates were sealed and heated to 65° C. for 20 minutes in a water bath. After cooling the fluorescence of each well was recorded with a Victor™X4 (PerkinElmer) plate reader at an emission wavelength of 535 nm and excitation at 405 nm (Tomek et al.; Anal Bioanal Chem (2013) 405:2515-2524., Tomek et al.; Biochim Biophys Acta. 2015 September; 1850(9):1772-80).
# T1 sequence (P14902 whole entry): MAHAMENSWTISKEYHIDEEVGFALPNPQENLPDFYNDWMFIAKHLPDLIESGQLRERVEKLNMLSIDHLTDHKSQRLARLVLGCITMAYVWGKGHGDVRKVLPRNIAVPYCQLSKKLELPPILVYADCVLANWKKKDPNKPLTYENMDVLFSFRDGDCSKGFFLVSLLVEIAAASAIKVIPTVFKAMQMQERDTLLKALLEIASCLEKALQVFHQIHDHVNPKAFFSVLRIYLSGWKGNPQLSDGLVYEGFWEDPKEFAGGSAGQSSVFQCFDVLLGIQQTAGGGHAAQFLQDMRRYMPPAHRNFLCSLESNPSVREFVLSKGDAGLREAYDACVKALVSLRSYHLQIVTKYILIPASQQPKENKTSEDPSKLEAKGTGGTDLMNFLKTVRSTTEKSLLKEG
row,Compound,IC50 [nM]
1,CS(=O)(=O)CC(=O)NCCSc1nonc1/C(=N/O)Nc1ccc(F)c(C(F)F)c1 [107/32],< 100
2,CS(=O)(=O)CCC(=O)NCCSc1nonc1C(=NO)Nc1ccc(F)c(C(F)F)c1 [107/38],< 100
3,"C[C@H](CSc1nonc1C(=NO)Nc1ccc(F)c(C(F)F)c1)NC(=O)CCS(N)(=O)=O (single isomer, unassigned) [114/2]",< 100
4,O=C(O)C1CN(CCSc2nonc2C(=NO)Nc2ccc(F)c(C(F)F)c2)C1 [108/1],> 1000
5,O=C(NCCSc1nonc1C(=NO)Nc1ccc(F)c(Cl)c1)c1ccc(C(=O)O)nc1 [117/5],> 1000
6,NS(=O)(=O)CC(=O)NCCSc1nonc1C(=NO)Nc1cc(F)c(F)c(Br)c1 [117/24],< 100
7,NS(=O)(=O)CC(=O)NCCSc1nonc1/C(=N/O)Nc1ccc(F)c(C(F)(F)F)c1 [107/31],< 100
8,"CS(=O)(=O)Nc1ccc(C(=O)NCCSc2nonc2C(=NO)Nc2ccc(F)c(Cl)c2)cn1 [Example 121, N-(2-((4-(N-(3-Chloro-4-fluorophenyl)-N′-hydroxycarbamimidoyl)-1,2,5-oxadiazol-3-yl)thio)ethyl)-6-(methylsulfonamido)nicotinamide]",100 to 1000
9,O=C(NCCSc1nonc1C(=NO)Nc1ccc(F)c(C(F)(F)F)c1)C1=NOC(C(O)(C(F)(F)F)C(F)(F)F)C1 (stereo not shown) [107/22],< 100
10,"NS(=O)(=O)NCCSc1nonc1C(=NO)Nc1cccc(C(F)F)c1 [Example 112, N-(3-(Difluoromethyl)phenyl)-N′-hydroxy-4-((2-(sulfamoylamino)ethyl)thio)-1,2,5-oxadiazole-3-carboximidamide]",< 100
11,Cn1nc(C(=O)NCCSc2nonc2C(=NO)Nc2ccc(F)c(C(F)(F)F)c2)[nH]c1=O [117/16],< 100
12,N#CCC(=O)NCCSc1nonc1/C(=N/O)Nc1ccc(F)c(C(F)F)c1 [107/17],< 100
13,"CC(CSc1nonc1C(=NO)Nc1ccc(F)c(C(F)F)c1)NC(=O)CS(N)(=O)=O (single isomer, unassigned) [Example 114, N-(1-((4-(N-(3-(difluoromethyl)-4-fluorophenyl)-N′-hydroxycarbamimidoyl)-1,2,5-oxadiazol-3-yl)thio)propan-2-yl)-2-sulfamoylacetamide]",< 100
14,"COc1nonc1C(=NO)Nc1cccc(CCCl)c1 [Example 22, N-(3-(2-Chloroethyl)phenyl)-N′-hydroxy-4-methoxy-1,2,5-oxadiazole-3-carboximidamide]",> 1000
15,"COc1nonc1/C(=N/O)Nc1ccc(F)c(Br)c1 [8/1, N-(3-Bromo-4-fluorophenyl)-N-hydroxy-4-methoxy-1,2,5-oxadiazole-3-carboximidamide]",< 100
16,O=C(NCCSc1nonc1C(=NO)Nc1ccc(F)c(C(F)F)c1)c1ccc(-n2cnnn2)cc1 [107/27],< 100
17,Cc1nnc(C(=O)NCCSc2nonc2C(=NO)Nc2ccc(F)c(Cl)c2)o1 [117/7],< 100
18,CS(=N)(=O)CC(=O)NCCSc1nonc1C(=NO)Nc1cccc(Cl)c1 (stereo not shown) [127/3],< 100

row,Compound,IC50 [nM]
1,NS(=O)(=O)CC(=O)NCCSc1nonc1/C(=N/O)Nc1ccc(F)c(Br)c1 [107/14],< 100
2,CC(=O)N1CC(O)(C(=O)NCCSc2nonc2C(=NO)Nc2ccc(F)c(C(F)F)c2)C1 [128/3],< 100
3,Nc1c(NCCOc2nonc2C(=NO)Nc2ccc(F)c(C(F)(F)F)c2)c(=O)c1=O [2/5],< 100
4,"CN1CCC1C(=O)NCCSc1nonc1C(=NO)Nc1ccc(F)c(C(F)F)c1 (stereo not shown) [Example 124/1, N-(2-((4-(N-(3-(Difluoromethyl)-4-fluorophenyl)-N′-hydroxycarbamimidoyl)-1,2,5-oxadiazol-3-yl)thio)ethyl)-1-methylazetidine-2-carboxamide]",< 100
5,NS(=O)(=O)CC(=O)NCCSc1nonc1C(=NO)Nc1cccc(CF)c1 [107/11],< 100
6,CS(=N)(=O)CC(=O)NCCSc1nonc1C(=NO)Nc1cccc(Br)c1 (stereo not shown) [127/4],< 100
7,N#Cc1ccc(C(=O)NCCSc2nonc2C(=NO)Nc2ccc(F)c(C(F)F)c2)cc1 [107/25],< 100
8,NC(=O)CS(=O)(=O)NCCSc1nonc1C(=NO)Nc1ccc(F)c(C(F)F)c1 [119/3],< 100
9,CC(C)(O)C(O)C(=O)NCCSc1nonc1C(=NO)Nc1ccc(F)c(C(F)F)c1 (stereo not shown) [107/1],< 100
10,NS(=O)(=O)CCC(=O)NCCSc1nonc1C(=NO)Nc1ccc(F)c(C(F)F)c1 [107/36],< 100
11,"CS(=O)(=O)CCS(=O)(=O)NCCSc1nonc1C(=NO)Nc1ccc(F)c(C(F)F)c1 [100/1, N-(3-(Difluoromethyl)-4-fluorophenyl)-N′-hydroxy-4-((2-((2-(methylsulfonyl)ethyl)sulfonamido)ethyl)thio)-1,2,5-oxadiazole-3-carboximidamide]",< 100
12,ON=C(Nc1ccc(F)c(Br)c1)c1nonc1SC1CC1 [Example 103/3],< 100
13,O=C(NCCSc1nonc1C(=NO)Nc1ccc(F)c(C(F)F)c1)c1ccc(-n2cnnc2)cc1 [107/26],100 to 1000
14,Nc1c(NCCSc2nonc2C(=NO)Nc2cccc(C(F)F)c2)c(=O)c1=O [102/1],< 100
15,NS(=O)(=O)NCC[S+]([O-])c1nonc1C(=NO)Nc1ccc(F)c(Cl)c1 (stereo not shown) [109/1],> 1000
16,NC(=O)N1CC(O)(C(=O)NCCSc2nonc2C(=NO)Nc2ccc(F)c(C(F)F)c2)C1 [128/4],100 to 1000
17,"C[C@@H](CSc1nonc1C(=NO)Nc1ccc(F)c(C(F)F)c1)NC(=O)CS(N)(=O)=O (single isomer, unassigned) [114/1]",< 100

# Further lines, results first:
row,IC50 [nM],Compound
1,100 to 1000,O=C(NCCOc1nonc1C(=NO)Nc1ccc(F)c(Cl)c1)C1(F)CNC1 [3/3]
2,< 100,NC(=O)CS(=O)(=O)NCCOc1nonc1C(=NO)Nc1ccc(F)c(C(F)F)c1 [4/2]
3,> 1000,O=C(O)c1ccc(C(=O)NCCOc2nonc2C(=NO)Nc2ccc(F)c(Cl)c2)cc1 [9/9]
4,> 1000,O=C(O)c1cccc(C(=O)NCCOc2nonc2C(=NO)Nc2ccc(F)c(Cl)c2)c1 [9/13]
5,< 100,"Nc1c(NCCOc2nonc2C(=NO)Nc2ccc(F)c(Cl)c2)c(=O)c1=O [Example 2, 4-(2-((2-Amino-3,4-dioxocyclobut-1-en-1-yl)amino)ethoxy)-N-(3-chloro-4-fluorophenyl)-N′-hydroxy-1,2,5-oxadiazole-3-carboximidamide]"
6,< 100,"NC(=O)CC(=O)NCCOc1nonc1C(=NO)Nc1ccc(F)c(Cl)c1 [7/1, N^1-(2-((4-(N-(3-chloro-4-fluorophenyl)-N′-hydroxycarbamimidoyl)-1,2,5-oxadiazol-3-yl)oxy)ethyl)malonamide]"
7,< 100,NS(=O)(=O)CC(=O)NCCOc1nonc1C(=NO)Nc1ccc(F)c(C(F)(F)F)c1 [9/21]
8,< 100,"CS(=O)(=O)NCCOc1nonc1/C(=N/O)Nc1ccc(F)c(Br)c1 [Example 1, N-(3-Bromo-4-fluorophenyl)-N′-hydroxy-4-(2-(methylsulfonamido)ethoxy)-1,2,5-oxadiazole-3-carboximidamide]"
9,< 100,O=C(NCCSc1nonc1C(=NO)Nc1ccc(F)c(C(F)F)c1)C1(F)CNC1 [123/6]
10,< 100,CC1(C(=O)NCCSc2nonc2/C(=N/O)Nc2ccc(F)c(C(F)F)c2)CCN1 (stereo not shown) [123/3]
11,> 1000,CC(C)(C)OC(=O)NC1(C(=O)NCCOc2nonc2C(=NO)Nc2ccc(F)c(Cl)c2)CC1(F)F (stereo not shown) [9/18]
12,< 100,NC(=O)CS(=O)(=O)NCCOc1nonc1C(=NO)Nc1ccc(F)c(C(F)(F)F)c1 [4/1]
13,< 100,"NS(=O)(=O)NCCSc1nonc1C(=NO)Nc1ccc(F)c(Cl)c1 [101/1, N-(3-Chloro-4-fluorophenyl)-N′-hydroxy-4-((2-(sulfamoylamino)ethyl)thio)-1,2,5-oxadiazole-3-carboximidamide]"
14,100 to 1000,O=C(NCCOc1nonc1C(=NO)Nc1ccc(F)c(Cl)c1)c1ccc(F)cc1 [9/1]
15,< 100,Nc1c(NCCOc2nonc2C(=NO)Nc2ccc(F)c(Br)c2)c(=O)c1=O [2/1]
16,< 100,"NC(=O)C(=O)NCCSc1nonc1C(=NO)Nc1ccc(F)c(Cl)c1 [Example 116, N^1-(2-((4-(N-(3-Chloro-4-fluorophenyl)-N′-hydroxycarbamimidoyl)-1,2,5-oxadiazol-3-yl)thio)ethyl)oxalamide]"
17,100 to 1000,O=C(NCCOc1nonc1C(=NO)Nc1ccc(F)c(Cl)c1)c1cnccn1 [9/4]
18,> 1000,O=C(NCCOc1nonc1C(=NO)Nc1ccc(F)c(Cl)c1)c1n[nH]c(=O)[nH]1 [9/10]
19,< 100,"NC(=O)C1(C(=O)NCCOc2nonc2C(=NO)Nc2ccc(F)c(Cl)c2)CC1 [Example 7, N-(2-((4-(N-(3-chloro-4-fluorophenyl)-N′-hydroxycarbamimidoyl)-1,2,5-oxadiazol-3-yl)oxy)ethyl)cyclopropane-1,1-dicarboxamide]"
20,< 100,CC1(C(=O)NCCSc2nonc2C(=NO)Nc2ccc(F)c(C(F)F)c2)CNC1 [123/5]
21,100 to 1000,O=C(NCCOc1nonc1C(=NO)Nc1ccc(F)c(Cl)c1)C1(O)CNC1 [3/2]
22,100 to 1000,O=C(NCCSc1nonc1C(=NO)Nc1ccc(F)c(Cl)c1)c1nnc(C(F)(F)F)[nH]1 [117/6]
23,100 to 1000,"ON=C(Nc1ccc(F)c(Cl)c1)c1nonc1OCCN1CCOCC1 [Example 10, N-(3-Chloro-4-fluorophenyl)-N′-hydroxy-4-(2-morpholinoethoxy)-1,2,5-oxadiazole-3-carboximidamide]"
